# From patent publication US5202339A, “Hydantoin derivatives” (Mochida Pharmaceutical Co., Ltd., priority 1987, dated 1993)
# Tests used:
# [1] = molecular target: T1, bovine lens aldose reductase (Bos taurus, UniProt P16116); experiment: inhibitory activity on bovine lens aldose reductase (Experimental Example 2); type: biochemical; conditions: pH 6.2, 10 mM DL-glyceraldehyde, 0.16 mM NADPH
# T1 construct: bovine lens aldose reductase preparation was used; from tissue; host or cells: bovine lens
# Protocol: Assays were performed in 0.1M phosphate buffer (pH 6.2) containing 0.4M ammonium sulfate, 10 mM DL-glyceraldehyde, 0.16 mM nicotinamide adenine dinucleotide phosphate, reduced form (NADPH) and aldose reductase (0.010-0.016 units) in a total volume of 1.0 ml. To this mixture was added 10 μl of the solution of each hydantoin derivative to be tested, and the decrease in absorbance at 340 nm was measured with a spectrophotometer.
# [2] = tested on: Streptozotocin-Diabetic Rats; experiment: Hypoglycemic Effects in Streptozotocin-Diabetic Rats (Experimental Example 4); type: in vivo, rat (male Wistar); conditions: Rattus norvegicus; STZ-diabetic rats, 100 mg/kg oral, 6 hrs after administration; read-out: Lowering rate of serum glucose (%)
# Protocol: (§1) Diabetic rats were produced according to the method of Junod et al. (A. Junod et al., J. Clin. Invest., 48, 2129 (1969)). Briefly, male Wistar rats were given 26.5 mg/kg of streptozotocin (STZ) intravenously. Four days later, the rats with serum glucose levels of between 400 and 500 mg/dl were used. After being fasted for 4 hrs, groups of 5 diabetic rats were orally administered with the compounds of the present invention or gliclazide in a dose of 100 mg/kg. Blood sample were collected from the orbital vein before and 6 hrs after the administration. Serum glucose levels were determined by the enzymatic method with an autoanalyzer (Cobas Fara®, Roche).
# [3] = tested on: ICR strain mice; experiment: acute toxicity in mice (Experimental Example 3); type: in vivo; conditions: 1 g/kg, oral, groups of 5 ICR mice
# Text: Hydantoin derivatives of the present invention were examined for acute toxicity.
# [4] = tested on: Streptozotocin-Diabetic Rats; experiment: Ketone Body Lowering Effects in Streptozotocin-Diabetic Rats (Experimental Example 5); type: in vivo, rat (male Wistar); conditions: STZ-diabetic rats, oral for 2 weeks
# Protocol: as §1
# (§2) Diabetic rats were produced according to the method described previously. Groups of 5 diabetic rats were orally administered with compound 38 or 47 of the present invention for 2 weeks. The rats were deprived of food 4 hrs before the last administration, and 6 hrs after the last administration, blood samples were collected from the orbital vein. Serum total ketone body (KB) levels were determined by the enzymatic method with an autoanalyzer (Cobas Fara®, Roche). In this experiment, serum total ketone body levels in streptozotocin-diabetic rats increased by 92 % of normal rats in the mean value.
# [5] = tested on: Streptozotocin-Diabetic Rats; experiment: Hypolipidemic Effects in Streptozotocin-Diabetic Rats (Experimental Example 7); type: in vivo, rat (male Wistar); conditions: STZ-diabetic rats, 100 mg/kg oral for 2 weeks
# Protocol: as §1
# as §2, with “invention at a dose of 100 mg/kg” for “invention”, “triglyceride (TG), non-esterified fatty acid (NEFA) and cholesterol (CHOL)” for “total ketone body (KB)”, “experiment, each parameters of” for “experiment,”, “lipids” for “total ketone body levels”, “40” for “92”
# [6] = tested on: Normal Rats; experiment: Hypoglycemic Effects in Normal Rats (Experimental Example 6); type: in vivo, rat (male Wistar); conditions: normal animals
# Protocol: Groups of 5 male Wistar rats, after being fasted for 4 hrs, where orally administered with compound 38 or 47 of the present invention or gliclazide. Blood samples were collected from the orbital vein before, 1 hr and 6 hrs after the administration. Serum glucose levels were determined by the enzymatic method with an autoanalyzer (Cobas Fara®, Roche).
smiles,measurement,setting,value
"O=C1CN(S(=O)(=O)c2oc3ccccc3c2Br)C(=O)N1 [Compound 38, 1-(3-bromobenzo[b]furan-2-ylsulfonyl)hydantoin]",IC50,[1],160 nM
same,inhibition in vivo at 100 mg/kg,[2],33.5%
same,acute toxicity: change observed over the one-week period after administration,[3],no change was observed
same,lowering of serum total ketone body levels (in words),[4],lowering activity of serum total ketone body levels
same,lowering of serum lipid levels (in words),[5],"lowering activities of serum triglyceride, non esterified fatty acid and cholesterol levels"
same,influence on serum glucose level of normal rats (in words),[6],lesser influences on serum glucose level of normal rats
